# Literature values as cited in patent US10463707B2, “Process for preparing herbal extracts” (MOLEAC PTE LTD., priority 2015, dated 2019).
# Conditions: Chen et al. Planta Med 2009
structure (smiles),measurement,setting,value
C/C=C\c1cc(OC)c(OC)cc1OC [beta asarone],Safe limits for beta asarone consumption,,0.115 mg per person per day
same,Safe limits for beta asarone consumption (equivalent),equivalent to the per-person limit,0.002 mg/kg body weight/day
